According to patent publication US7622271B2, “Identification of aging genes through large-scale analysis” (University of Washington, priority 2004, dated 2009):
Like-named read-outs stand apart in the source and are kept apart here.

System: yeast cells
Details: for life span: yeast replicative life span
Experimental: FIG. 2 illustrates replicative life span (“RLS”) analysis in yeast. […] A mother cell is a yeast cell that has produced one or more daughter cells. […] The total number of mitotic divisions completed by a given mother cell is the replicative life span for that mother cell. One indicator of senescence in yeast is the inability to produce daughter cells.
A large-scaled, life-span analysis is performed as follows. Approximately three days before initiating a life-span-determination assay, a set of 95 strains contained in a yeast alpha-haploid-deletion collection (Open Biosystems), is transferred to a 96-well plate containing YPDagar using a FX robot, so that each strain occupies one well of a 96-well plate. Concurrently, “wildtype” reference cells (BY4742) are plated within an empty well of the 96-well test plate. For 1-2 days, plated cells are allowed to grow on rich medium, such as YPD, at 30° C. Cells are patched onto life-span-measuring plates containing YPD so that approximately 12 strains are plated per plate the night, or approximately 12 hours, before initiating life-span analysis. A life-span experiment is initiated by gridding a region of the plate distal to growing cells, to which 5 cells of each strain of 12 strains are transferred by micromanipulation. Cells are incubated for two hours at 30° C. Then, virgin daughter cells of each deletion variant cell are selected, and original mother cells are removed. Such virgin daughter cells are monitored for de novo production of daughters at 2-3 hour intervals. Produced daughters are individually removed, and tabulated. Mother cells are placed back at 30° C. to allow continued growth. During evening hours, cells are moved to 4° C. so that the cell division rate is reduced to one cell division per evening. The following day, cells are placed at 30° C. to resume growth. This process is continued for a period of time, approximately two weeks, to allow cells of each variant strain to exhaust its proliferative potential. The total number of daughter cells produced by each mother variant cell is tabulated, and determined RLS values are entered into a database.

Question: For `CS(=N)(=O)CC[C@H](N)C(=O)O` (stereo partly drawn) [MSX, methionine sulfoximine], which life span (50 uM, preliminary experiments) is on record?
Answer: significantly increases life span

Question: What about the life span (100 uM, preliminary experiments) of the same compound?
Answer: significantly increases life span

Question: And the “increase in mean replicative life span” value (1 mM (maximal life span extension), preliminary experiments)?
Answer: 25-30%

Question: What about the life span (1 mM, preliminary experiments) of the same compound?
Answer: significantly increases life span

Question: And the life span (2.5 mM, preliminary experiments)?
Answer: significantly increases life span

Question: What about the “replicative life span in yeast” value (exposure of yeast cells to MSX) of the same compound?
Answer: extends replicative life span
